Active and inactive are the calls of the source. The rule behind the calls is not given here.
Legend:
Human betaherpesvirus 5 [1] = assay: Antiviral activity against Human cytomegalovirus infected in severe combined immunodeficient mouse with human fetal tissue implanted assessed as reduction in viral replication; assay type: functional, organism-based
Murid betaherpesvirus 1 = assay: Antiviral activity against Murine cytomegalovirus infected in severe combined immunodeficient mouse assessed as reduction in viral load; assay type: functional
Human betaherpesvirus 5 [2] = assay: Antiviral activity against Human cytomegalovirus; assay type: functional, organism-based

Row | SMILES | Activity (Human betaherpesvirus 5 [1]) | fold change (FC) (Murid betaherpesvirus 1) | EC50 (Human betaherpesvirus 5 [2])
1 | Nc1nc2c(ncn2/C=C2/CC2(CO)CO)c(=O)[nH]1 [FILOCICLOVIR] | Active | 2 | –
2 | Nc1nc2c(ncn2COC(CO)CO)c(=O)[nH]1 [GANCICLOVIR] | – | – | 4.1 µM

From ChEMBL document CHEMBL1275262, “Stereoselective phosphorylation of cyclopropavir by pUL97 and competitive inhibition by maribavir” (Antimicrob Agents Chemother, 2010)
